Experimental data reported in article PMC9501633, “Synthesis, Characterisation and Mechanism of Action of Anticancer 3-Fluoroazetidin-2-ones” (Pharmaceuticals, 2022).

What was measured:
[1] = Stability in phosphate buffers (HPLC); format: physicochemical
Protocol: The β-lactam ring is known to undergo hydrolysis/degradation depending on the substituent type on the ring. For example, degradation of monocyclic β-lactam antibiotic aztreonam increased with elevated humidity, temperature and acidic pH buffer. Ezetimibe, a monocyclic β-lactam drug used to reduce blood cholesterol, undergoes degradation and hydrolysis more rapidly in neutral and basic pH conditions than in acidic pH [71]. The stability of representative compounds 33 and 39 was also determined at pH 4, pH 7.4 (plasma) and pH 9 (intestine) by HPLC. […] The electron-withdrawing effect of the 3-fluoro substituent may result in decreasing stability of the β-lactam ring in response to acid hydrolysis.
The stability study for compounds 33 and 39 was performed using analytical HPLC (Symmetry column (C18, […], 4.6 × 150 mm), dual wavelength absorbance detector (Waters 2487), binary HPLC pump (Waters 1525) and autosampler (Waters 717 plus)) with mobile phase acetonitrile (70%)/water (30%), flow rate 1 mL/min over 15 min and detection at λ 254 nm. Stock solutions of compounds 33 and 39 (1 mg/mL in mobile phase) were used. Dilutions of 0.5 mg/mL, 0.25 mg/mL, 0.125 mg/mL, 0.0625 mg/mL, 0.03125 mg/mL, 0.015625 mg/mL and 0.0078 mg/mL were prepared for the calibration curve. (i) Stability of 33 and 39 in phosphate buffers: The phosphate buffers were prepared in accordance with the British Pharmacopoeia 2020 at pH values 4, 7.4 and 9. Stock solution, 300 µL (1 mg/mL ACN), was added to a vial containing buffer (9.7 mL), mixed and pre-heated to 37 °C. 1 mL of the solution was introduced into an HPLC vial. Samples (10 µL) were injected and analysed at time intervals of t = 0 min, 5 min, 30 min, 60 min and hourly for 24 h. The analysis was performed in triplicate. (ii) Thermal stability: Compounds 33 and 39 (1 mL stock solution) were each placed in a vial for 4 h at 60 °C on a heating block. The sample was then cooled, diluted with acetonitrile and analysed by HPLC. (iii) Photostability study: Compounds 33 and 39 (stock solution, 1 mL) were placed in a vial, exposed to UV light for 4 h and then analysed by HPLC. (iv) Stability in acidic conditions: HCl (0.1 M, 0.2 mL) was added to stock solutions (0.8 mL) of 33 and 39 in a vial. The vial was vortexed and retained at room temperature. A sample was neutralised with NaOH (0.1 M, 0.2 mL) each hour for 4 h and then analysed by HPLC. (v) Stability of 33 and 39 in basic (alkaline) conditions: NaOH (0.1 M, 0.2 mL) was added to stock solution (0.8 mL) in a vial. The vial was vortexed and retained at room temperature. A sample was neutralised with HCl (0.1 M, 0.2 mL) every hour for 4 h then analysed by HPLC. (vi) Stability of 33 and 39 in oxidising conditions: H2O2 (3%, 0.2 mL) was added to the stock solution (0.8 mL). The vial was vortexed to obtain a homogeneous mixture and retained at room temperature, and a sample was analysed by HPLC every hour for 4 h.

[2] = system: Bcl-2; assay: Western blot of apoptosis regulatory proteins in MCF-7 cells; format: cell-based, human; details: MCF-7, 0.05, 0.1 and 0.5 μM, 48 and 72 h, dose-dependent
Protocol: (§1) The selective Bcl-2 inhibitor venetoclax was developed as a BH3-mimetic that binds to the pro-survival protein Bcl-2 and inhibits its ability to bind Bax or Bak. Venetoclax has been approved for clinical use in the treatment of chronic lymphocytic leukaemia (CLL). Compound 33 induced downregulation of Bcl-2 expression with corresponding upregulation of Bax at 48 h in a dose-dependent manner. This effect was further increased at 72 h.
(§2) Western blot analysis was performed according to the protocols we previously described. MCF-7 cells were seeded at a density of 1 × 10^5 cells/flask in T25 flasks. After 48 h, whole cell lysates were prepared from untreated cells or cells treated with vehicle control (EtOH, 0.1% v/v) or cells treated with compound 33 (0.05 μM, 0.1 μM and 0.5 μM). MCF-7 cells were harvested in RIPA buffer which was supplemented with protease inhibitors (Roche Diagnostics, Rotkreuz, Switzerland), phosphatase inhibitor cocktail 2 (Sigma-Aldrich, Arklow, Ireland) and phosphatase inhibitor cocktail 3 (Sigma-Aldrich, Arklow, Ireland). Equal amounts of protein (as determined by a BCA assay) were resolved by SDS-PAGE (12%) followed by transfer to PVDF membranes. […] Proteins were detected using enhanced chemiluminescent Western blot detection (Clarity Western ECL substrate) (Bio-Rad) on the ChemiDoc MP System (Bio-Rad). […]

[3] = system: Bax; assay: as above; format: cell-based, human; details: MCF-7, 0.05, 0.1 and 0.5 μM, 48 and 72 h, dose-dependent
Protocol: as §1, §2

COc1ccc(C2C(F)C(=O)N2c2cc(OC)c(OC)c(OC)c2)cc1F (stereo not drawn) [Compound 33, 3-Fluoro-4-(3-fluoro-4-methoxyphenyl)-1-(3,4,5-trimethoxyphenyl)azetidin-2-one]
remaining at 24 h, 0.03 mg/mL ([1]; phosphate buffer pH 4, 37 °C): 76% | remaining at 24 h, 0.03 mg/mL ([1]; phosphate buffer pH 7.4, 37 °C): 87% | remaining at 24 h, 0.03 mg/mL ([1]; phosphate buffer pH 9, 37 °C): 26% | remaining at 0.03 mg/mL ([1]; phosphate buffer, pH 11 (as printed in Table S7)): 26% | Bcl-2 expression [2]: downregulation | Bax expression [3]: upregulation
